{"source": "patent US12674135B2", "about": "“Three-dimensional culture of immortalized skin cells on the superficial layer of which a stratum corneum is formed, method for producing said three-dimensional culture, and method for evaluating test substance using said three-dimensional culture” (National Institute of Advanced Industrial Science and …, priority 2020, dated 2026)", "key": {"[1]": {"test_system": "IL-8 promoter (red light-emitting luciferase) in three-dimensional culture of HaCaT", "experiment": "Skin sensitization evaluation: test substance loaded from the top of the three-dimensional HaCaT culture, multicolor luciferase luminescence (IL-8 promoter red / UBC promoter green)", "conditions": "range of from 200 µM to 2 mM in KGM medium, 30 μL loaded only from the top, up to 72 hours, FIG. 10", "excerpt": "(§1) The thus obtained HaCaT was used to obtain a three-dimensional culture by the same method as in Example 1. The three-dimensional culture was a three-dimensional culture in which a Cellbed was used as a plate-like substrate as in Example 1, to which a HaCaT culture layered product was adhered, and the superficial layer of the three-dimensional culture was the stratum corneum.\n(§2) A cell culture insert (Falcon Culture Insert #353095) comprising a clear, colorless, PET membrane with a 0.4 μm pore size bottom for 24 wells was inserted into the wells of a 24-well plate for cell culture with black walls and a colorless bottom, the three-dimensional culture was placed in the bottom of the culture insert with the cells on top, and 0.8 mL of KGM-gold containing 0.2 mM luciferin potassium salt was placed in the well outside the culture insert. For sensitization evaluation, a test substance was loaded from the top of the three-dimensional culture inside the insert. […] As a solvent control, 30 μL of KGM medium was added from the top of the three-dimensional culture. Plastic paraffin film was sprinkled around this well plate and the luminescence was measured for 0 to 72 hours with a real-time luminescence monitoring system for cultured cells, Kronos HT (manufactured by ATTO Corporation). Measurements were taken every minute for 10 seconds for each color and continued for 0 to 72 hours. […]"}, "[2]": {"test_system": "IL-8 promoter (red light-emitting luciferase) in three-dimensional culture of HaCaT", "conditions": "20 μM, 100 μM and 200 μM, loaded from bottom and top surfaces, 0 to 72 hours, FIG. 15", "excerpt": "as §1\nA cell culture insert (Falcon Culture Insert #353095) comprising a clear, colorless, PET membrane with a 0.4 μm pore size bottom for 24 wells was inserted into the wells of a 24-well plate for cell culture with black walls and a colorless bottom, the three-dimensional culture obtained in Example 3 was placed in the bottom of the culture insert with the cells on top. […] 0.8 mL of this medium was placed on the outside of the culture insert, and then 30 μL was loaded from the top of the three-dimensional culture. […]\nPlastic paraffin film was sprinkled around this well plate and the luminescence was measured for 0 to 72 hours with a real-time luminescence monitoring system for cultured cells, Kronos HT (manufactured by ATTO Corporation). The bioluminescence intensity of each luciferase was measured on these three-dimensional cultures as in Example 5."}, "[3]": {"test_system": "IL-8 promoter (red light-emitting luciferase) in three-dimensional culture of HaCaT", "excerpt": "as §1, §2"}}, "data": [{"smiles": "Oc1ccc(O)cc1", "note": "[HQ, hydroquinone]", "values": [{"measurement": "relative bioluminescence intensity of red light-emitting luciferase (IL-8 promoter) to green light-emitting luciferase (ubiquitin C promoter)", "setting": "[1]", "result": "concentration-dependent increase"}, {"measurement": "bioluminescence intensity ratio of red light-emitting luciferase (IL-8 promoter) to green light-emitting luciferase (ubiquitin C promoter)", "setting": "[2]", "result": "increased in a concentration-dependent manner"}]}, {"smiles": "CCCCN(CCCC)c1ccccc1", "note": "[DA, dibutylaniline]", "values": [{"measurement": "emission intensity, concentration dependence", "setting": "[3]", "result": "concentration dependence was observed"}]}]}
